Results from patent US20200308144A1, “Multimeric piperidine derivatives” (Bellicum Pharmaceuticals, Inc., priority 2017, published 2020).
Read-outs that look alike come from different tables or passages of the source.

What was measured:
[1] = Stability of salt forms under accelerated conditions of heat and humidity; assay type: physicochemical
Procedure: The stability of different salt forms of Compound A was assayed under accelerated conditions of heat and humidity for 7 and for 14 days. All salts were […] up to 40° C. and 75% relative humidity (RH), but appeared to degrade under severe temperature and humidity conditions of 80° C. with or without 80% relative humidity. (Table 3)

[2] = Solubility in water and buffers; assay type: physicochemical; conditions: buffer system None (unbuffered water)
From the text: By “soluble” or “solubility” is meant the property of a compound to dissolve in water, buffer, or other liquid, which may be measured in terms of mg·mL^−1. […] Examples of pharmaceutically acceptable buffers include those provided in Remington: The Science and Practice of Pharmacy, 22 ed., 2013, Pharmaceutical Press, London (Allen, L. V., Jr., ed.). […] Methods for evaluating the solubility of a compound include, for example, a 96-well plate-based assay in which aqueous suspensions of the compound are vacuum-filtered and the concentration of compound is measured by UV spectrophotometry (Roy et al (2001) Drug Dev Ind Pharm 27(1):107-109).

cells [3] = conditions: cited from earlier work
cells [4] = assay: AP1903 amount needed in vitro for effective signaling of cells; assay type: cell-based; conditions: converted with 1600 Da
Procedure: The fixed dose of AP1903 for injection used, for example, may be 0.4 mg/kg intravenously infused over 2 hours. The amount of AP1903 needed in vitro for effective signaling of cells is 10-100 nM (1600 Da MVV). This equates to 16-160 μg/L or ˜[…] (1.6-160 μg/kg). Doses up to 1 mg/kg were well-tolerated in the Phase 1 study of AP1903 discussed above. Therefore, 0.4 mg/kg may be a safe and effective dose of AP1903 for this Phase I study in combination with the therapeutic cells.

[5] = cited from earlier work
[6] = cited from earlier work; remark: listed apart in the source

Row | Structure (SMILES) | Assay (%) ([1]; 25° C./60% RH, 7 D) | Assay (%) ([1]; 25° C./60% RH, 14 D) | Assay (%) ([1]; 40° C./75% RH, 7 D) | Assay (%) ([1]; 40° C./75% RH, 14 D) | Assay (%) ([1]; 80° C., 7 D) | Assay (%) ([1]; 80° C., 14 D) | Assay (%) ([1]; 80° C./80% RH, 7 D) | Assay (%) ([1]; 80° C./80% RH, 14 D) | Inherent pH in parenthesis [2] | amount needed in vitro for effective signaling of cells (cells [3]) [nM] | amount needed in vitro for effective signaling of cells, converted (cells [4]) [µg/L] | solubility in water [5] | plasma levels versus dose ([6]; 0.01-1.0 mg/kg IV over 2 hours) | plasma level as % of maximal concentration ([6]; 0.5 hours post-dose) | plasma level as % of maximal concentration ([6]; 2 hours post-dose) [%] | plasma level as % of maximal concentration ([6]; 10 hours post-dose) [%] | well-tolerated doses ([6]; Phase 1 study) | mean Cmax ([6]; healthy volunteers, single doses 0.01-1.0 mg/kg infused IV over 2 hours) [ng/mL]
1 | CC[C@H](C(=O)N1CCCC[C@H]1C(=O)O[C@H](CCc1ccc(OC)c(OC)c1)c1cccc(OCCN(C)CCN(C)CCOc2cccc([C@@H](CCc3ccc(OC)c(OC)c3)OC(=O)[C@@H]3CCCCN3C(=O)[C@@H](CC)c3cc(OC)c(OC)c(OC)c3)c2)c1)c1cc(OC)c(OC)c(OC)c1.O=S(=O)(O)c1ccccc1 | 92.2 | 91.7 | 92.2 | 92.2 | 91.5 | 90.6 | 91.2 | 90. | 4.3 |  |  |  |  |  |  |  |  | 
2 | CC[C@H](C(=O)N1CCCC[C@H]1C(=O)O[C@H](CCc1ccc(OC)c(OC)c1)c1cccc(OCCN(C)CCN(C)CCOc2cccc([C@@H](CCc3ccc(OC)c(OC)c3)OC(=O)[C@@H]3CCCCN3C(=O)[C@@H](CC)c3cc(OC)c(OC)c(OC)c3)c2)c1)c1cc(OC)c(OC)c(OC)c1.O=P(O)(O)O [Compound A.1] | 96.2 | 95.9 | 95.6 | 95.9 | 94.9 | 93.3 | 85.2 | 77.7 | 3.9 |  |  |  |  |  |  |  |  | 
3 | CC[C@H](C(=O)N1CCCC[C@H]1C(=O)O[C@H](CCc1ccc(OC)c(OC)c1)c1cccc(OCCN(C)CCN(C)CCOc2cccc([C@@H](CCc3ccc(OC)c(OC)c3)OC(=O)[C@@H]3CCCCN3C(=O)[C@@H](CC)c3cc(OC)c(OC)c(OC)c3)c2)c1)c1cc(OC)c(OC)c(OC)c1.Cl [Compound A.2] | 97.3 | 96.7 | 97.2 | 96.9 | 96.3 | 94.8 | 95.6 | 94.4 | 2.9 |  |  |  |  |  |  |  |  | 
4 | CC[C@H](C(=O)N1CCCC[C@H]1C(=O)O[C@H](CCc1ccc(OC)c(OC)c1)c1cccc(OCCN(C)CCN(C)CCOc2cccc([C@@H](CCc3ccc(OC)c(OC)c3)OC(=O)[C@@H]3CCCCN3C(=O)[C@@H](CC)c3cc(OC)c(OC)c(OC)c3)c2)c1)c1cc(OC)c(OC)c(OC)c1.O=C(O)/C=C/C(=O)O [Fumarate] | 97.5 | 97.1 | 97.2 | 96.8 | 96.6 | 95.8 | 87.5 | 81.2 | 3.4 |  |  |  |  |  |  |  |  | 
5 | CC[C@H](C(=O)N1CCCC[C@H]1C(=O)O[C@H](CCc1ccc(OC)c(OC)c1)c1cccc(OCCN(C)CCN(C)CCOc2cccc([C@@H](CCc3ccc(OC)c(OC)c3)OC(=O)[C@@H]3CCCCN3C(=O)[C@@H](CC)c3cc(OC)c(OC)c(OC)c3)c2)c1)c1cc(OC)c(OC)c(OC)c1.O=S(=O)(O)O [Sulphate] | 96.2 | 95.0 | 95.9 | 95.6 | 95.3 | 94.6 | 88.2 | 85.4 | 3.06 |  |  |  |  |  |  |  |  | 
6 | CC[C@H](C(=O)N1CCCC[C@H]1C(=O)O[C@H](CCc1ccc(OC)c(OC)c1)c1cccc(OCC(=O)NCCNC(=O)COc2cccc([C@@H](CCc3ccc(OC)c(OC)c3)OC(=O)[C@@H]3CCCCN3C(=O)[C@@H](CC)c3cc(OC)c(OC)c(OC)c3)c2)c1)c1cc(OC)c(OC)c(OC)c1 [rimiducid] |  |  |  |  |  |  |  |  |  | 10 to 100 | 16 to 160 | approximately 700 pM | directly proportional to dose | approximately 18% | ~7 | ~1 | up to 1 mg/kg | 10 to 1275
